Experimental data taken from US20230109839A1, “THERAPEUTIC AGENT FOR TAUOPATHIES” (SUMITOMO PHARMA CO., LTD., priority 2020, published 2023).

Molecular target: T1, human Nav1.1 (Homo sapiens, UniProt P35498)
T1 construct: host or cells: HEK293
Assay: Amplification of Nav1.1-derived voltage-gated sodium current (Nav1.1 current), automated patch clamp (Test 1)
Assay type: cell-based
Settings: HEK293, Concentration for evaluation 1 μM; HEK293 cell line stably expressing human Nav1.1; read-out: Nav1.1 current amplification rate (%)
Procedure, shortened: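 Compound-induced change in ramp-evoked sodium current peak and AUC was expressed as 100×post/pre ratio minus 100. Recordings used automated patch clamp in voltage-clamp mode on a stable human Nav1.1 HEK293 line, including only cells above 500 pA. Compounds were delivered in extracellular fluid containing 1% DMSO.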

Row | activation at 1 µM [%] | Compound
1 | 249 | CC1CC=C(c2cnc3cnn(CC(=O)Nc4ccn5ncnc5c4)c3n2)CC1 (centres unmarked) [Example 577, 2-[6-(4-methylcyclohex-1-en-1-yl)-1H-pyrazolo[3,4-b]pyrazin-1-yl]-N-([1,2,4]triazolo[1,5-a]pyridin-7-yl)acetamide]
2 | 111 | CN(c1ncc2cnn(CC(=O)Nc3ccn4ncnc4c3)c2n1)C1CCCC1 [Example 795, 2-{6-[cyclopentyl(methyl)amino]-1H-pyrazolo[3,4-d]pyrimidin-1-yl}-N-([1,2,4]triazolo[1,5-a]pyridin-7-yl)acetamide]
